What all share (test): Test G Pre-Emergence Protocol
Format in all cases: in vivo

The subject of assay [1] is redroot pigweed (Amaranthus retroflexus). The settings on record: Amaranthus retroflexus, pre-emergence, 312 h, evaluated after 13 days; for pest or weed control at 15.625 g/ha: 15.625 g ai/ha; for pest or weed control at 15.625 g/ha / pest or weed control at 250 g/ha: read-out: Pigweed, Redroot damage rating (100=total damage to plant; 0=no damage to plant); for pest or weed control at 62.5 g/ha: 62.5 g ai/ha, 100=total damage to plant, 0=no damage to plant, read-out: plant damage rating, Pigweed, Redroot; for pest or weed control at 250 g/ha: 250 g ai/ha. The method, then:
(§1) Seeds of corn (Zea mays), giant foxtail (Setaria faberi), barnyardgrass (Echinochloa crus-galli), ivy-leaved morning glory (Ipomoea hederacea), redroot pigweed (Amaranthus retroflexus) and velvetleaf (Abutilon theophrasti) were sown in standard soil in pots. After cultivation for one day under controlled conditions in a glasshouse (at 24/16° C., day/night; 14 hours light; 65% humidity), the plants were sprayed with an aqueous spray solution derived from the formulation of the technical active ingredient in acetone/water (50:50) solution containing 0.5% Tween 20 (polyoxyethylene sorbitan monolaurate, CAS RN 9005-64-5) to give a final dose of 15.625, 62.5 or 250 g/ha of test compound.
(§2) The test plants were then grown on under controlled conditions in a glasshouse (at 24/16° C., day/night; 14 hours light; 65% humidity) and watered twice daily. After 13 days the test was evaluated (100=total damage to plant; 0=no damage to plant). A dash (-) means no test result.

The test system of assay [2] is velvetleaf (Abutilon theophrasti). The settings on record: Abutilon theophrasti, pre-emergence, 312 h, evaluated after 13 days; for pest or weed control at 15.625 g/ha: 15.625 g ai/ha; for pest or weed control at 15.625 g/ha / pest or weed control at 250 g/ha: read-out: Velvetleaf damage rating (100=total damage to plant; 0=no damage to plant); for pest or weed control at 62.5 g/ha: 62.5 g ai/ha, 100=total damage to plant, 0=no damage to plant, read-out: plant damage rating, Velvetleaf; for pest or weed control at 250 g/ha: 250 g ai/ha. Here is the method:
as §1, §2

Assay [3] relates to barnyardgrass (Echinochloa crus-galli). The settings on record: Echinochloa crus-galli, pre-emergence, 312 h, evaluated after 13 days; for pest or weed control at 15.625 g/ha: 15.625 g ai/ha, read-out: Barnyard grass damage rating (100=total damage to plant; 0=no damage to plant); for pest or weed control at 62.5 g/ha: 62.5 g ai/ha, 100=total damage to plant, 0=no damage to plant, read-out: plant damage rating, Barnyardgrass; for pest or weed control at 250 g/ha: 250 g ai/ha, read-out: Barnyardgrass damage rating (100=total damage to plant; 0=no damage to plant). The method, then:
as §1, §2

In assay [4] the test system is giant foxtail (Setaria faberi). The settings on record: Setaria faberi, pre-emergence, 312 h, evaluated after 13 days; for pest or weed control at 15.625 g/ha: 15.625 g ai/ha; for pest or weed control at 15.625 g/ha / pest or weed control at 250 g/ha: read-out: Foxtail, Giant damage rating (100=total damage to plant; 0=no damage to plant); for pest or weed control at 62.5 g/ha: 62.5 g ai/ha, 100=total damage to plant, 0=no damage to plant, read-out: plant damage rating, Foxtail, Giant; for pest or weed control at 250 g/ha: 250 g ai/ha. The method, then: as §1, §2

The subject of the next assay is corn (Zea mays). The settings on record: Zea mays, pre-emergence, 312 h, evaluated after 13 days; for plant injury at 15.625 g/ha: 15.625 g ai/ha; for plant injury at 15.625 g/ha / plant injury at 250 g/ha: read-out: Corn damage rating (100=total damage to plant; 0=no damage to plant); for plant injury at 62.5 g/ha: 62.5 g ai/ha, 100=total damage to plant, 0=no damage to plant, read-out: plant damage rating, Corn; for plant injury at 250 g/ha: 250 g ai/ha. Here is the method: as §1, §2

The test system of assay [5] is ivy-leaved morning glory (Ipomoea hederacea). The settings on record: Ipomoea, pre-emergence, 312 h, evaluated after 13 days; for pest or weed control at 15.625 g/ha: 15.625 g ai/ha, read-out: Morning-glory, Ivy-leaved damage rating (100=total damage to plant; 0=no damage to plant); for pest or weed control at 62.5 g/ha: 62.5 g ai/ha, 100=total damage to plant, 0=no damage to plant, read-out: plant damage rating, Morningglory, Ivy-leaved; for pest or weed control at 250 g/ha: 250 g ai/ha, read-out: Morningglory, Ivy-leaved damage rating (100=total damage to plant; 0=no damage to plant). The method, then:
as §1, §2

Regarding `CN1C[C@@H](c2ccc(C(F)(F)F)cc2)[C@H](C(=O)Nc2ncc(C(F)(F)F)s2)C1=O` (racemic) [Compound 1504], in assay [1], the pest or weed control at 15.625 g/ha was 0%, the pest or weed control at 62.5 g/ha was 0% and the pest or weed control at 250 g/ha worked out at 0%. In assay [2], the pest or weed control at 15.625 g/ha was determined as 0%, the pest or weed control at 62.5 g/ha is 0% and the pest or weed control at 250 g/ha is 0%. Further, in assay [3], the pest or weed control at 15.625 g/ha was determined as 0%, the pest or weed control at 62.5 g/ha was determined as 0% and the pest or weed control at 250 g/ha was found to be 0%. Moreover, in assay [4], the pest or weed control at 15.625 g/ha worked out at 0%, the pest or weed control at 62.5 g/ha worked out at 0% and the pest or weed control at 250 g/ha was 0%. In the assay with corn (Zea mays), the plant injury at 15.625 g/ha is 0%, the plant injury at 62.5 g/ha came out at 0% and the plant injury at 250 g/ha turned out to be 0%. For the same compound, in assay [5], the pest or weed control at 15.625 g/ha stood at 0%, the pest or weed control at 62.5 g/ha turned out to be 0% and the pest or weed control at 250 g/ha came to 0%.
Take `CN1C[C@@H](c2ccc(C(F)(F)F)cc2)[C@H](C(=O)Nc2cnccc2C(F)(F)F)C1=O` (racemic) [Compound 1401]: in assay [1], the pest or weed control at 15.625 g/ha is 0%, the pest or weed control at 62.5 g/ha is 40% and the pest or weed control at 250 g/ha is 90%. Also, in assay [2], the pest or weed control at 15.625 g/ha stood at 0%, the pest or weed control at 62.5 g/ha was determined as 30% and the pest or weed control at 250 g/ha is 70%. In assay [3], the pest or weed control at 15.625 g/ha was 20%, the pest or weed control at 62.5 g/ha was determined as 30% and the pest or weed control at 250 g/ha is 80%. Besides, in assay [4], the pest or weed control at 15.625 g/ha came to 40%, the pest or weed control at 62.5 g/ha was 70% and the pest or weed control at 250 g/ha came to 90%. For the same compound, in the assay with corn (Zea mays), the plant injury at 15.625 g/ha was determined as 0%, the plant injury at 62.5 g/ha was found to be 10% and the plant injury at 250 g/ha was 20%. Moreover, in assay [5], the pest or weed control at 62.5 g/ha turned out to be 0% and the pest or weed control at 250 g/ha came to 20%.
As for `CN1C[C@H](c2cccc(C(C)(C)C#N)c2)[C@@H](C(=O)Nc2cccc(F)c2F)C1=O` (racemic) [Compound 1497], in assay [1], the pest or weed control at 15.625 g/ha is 0%, the pest or weed control at 62.5 g/ha amounted to 0% and the pest or weed control at 250 g/ha is 0%. For the same compound, in assay [2], the pest or weed control at 15.625 g/ha came out at 0%, the pest or weed control at 62.5 g/ha is 0% and the pest or weed control at 250 g/ha turned out to be 0%. In assay [3], the pest or weed control at 15.625 g/ha turned out to be 0%, the pest or weed control at 62.5 g/ha turned out to be 30% and the pest or weed control at 250 g/ha turned out to be 80%. In assay [4], the pest or weed control at 15.625 g/ha turned out to be 0%, the pest or weed control at 62.5 g/ha worked out at 60% and the pest or weed control at 250 g/ha amounted to 80%. For the same compound, in the assay on corn (Zea mays), the plant injury at 15.625 g/ha was 0%, the plant injury at 62.5 g/ha stood at 0% and the plant injury at 250 g/ha turned out to be 10%. Further, in assay [5], the pest or weed control at 15.625 g/ha was found to be 0%, the pest or weed control at 62.5 g/ha came to 0% and the pest or weed control at 250 g/ha is 20%.
Regarding `CN1C[C@@H](c2ccc(C(F)(F)F)cc2)[C@H](C(=O)Nc2ccnc(Cl)c2Cl)C1=O` (racemic) [Compound 1503], the pest or weed control at 15.625 g/ha in assay [1], in assay [2], in assay [3] and in assay [4] was 0% each time. The pest or weed control at 250 g/ha in assay [1] was 0%; in assay [2] it was 0%; in assay [3] it was 20%; in assay [4], 30%; in assay [5], 0%. Moreover, the pest or weed control at 62.5 g/ha in assay [2], in assay [3], in assay [4] and in assay [5] was 0% each time. Moreover, the plant injury at 15.625 g/ha in the assay on corn (Zea mays) came to 0%. Further, the plant injury at 62.5 g/ha in the assay with corn (Zea mays) turned out to be 0%. The plant injury at 250 g/ha in the assay with corn (Zea mays) was found to be 0%.
